Data reported in patent publication US10597388B2, “Pyridazinone herbicides” (FMC CORPORATION, priority 2014, dated 2020).
Where two headings read alike, the source gives them in different places.

Key:
Format in all cases: in vivo
kochia (Kochia scoparia) = test: Test A greenhouse herbicide test, pre- and postemergence
Summary of the method: (§1)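 Visual injury ratings, 0 (no effect) to 100 (complete control), versus untreated plants after roughly 10 d in a greenhouse. Compounds, formulated in a surfactant-containing non-phytotoxic solvent, were sprayed on loam–sand soil after sowing (pre) or on one- to two-leaf plants 2–10 cm tall (post).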

[1] = test system: barnyardgrass (Echinochloa crus-galli); test: as above; conditions: for pest or weed control at 1000 g/ha: Echinochloa crus-galli, 240 h, 1000 g ai/ha
Summary of the method: as §1

[2] = test system: foxtail, giant (giant foxtail, Setaria faberii); test: as above; conditions: for pest or weed control at 1000 g/ha: Setaria faberi, 240 h, 1000 g ai/ha
Summary of the method: as §1

corn (Zea mays) = test: as above
Summary of the method: as §1

[3] = test system: wheat (Triticum aestivum); test: as above; conditions: for plant injury at 1000 g/ha: Triticum aestivum, 240 h, 1000 g ai/ha
Summary of the method: as §1

[4] = test system: ragweed (common ragweed, Ambrosia elatior); test: as above
Summary of the method: as §1

[5] = test system: ryegrass, Italian (Italian ryegrass, Lolium multiflorum); test: as above
Summary of the method: as §1

[6] = test system: pigweed (Amaranthus retroflexus); test: as above; conditions: for pest or weed control at 1000 g/ha: Amaranthus retroflexus, 240 h, 1000 g ai/ha
Summary of the method: as §1

[7] = test system: velvetleaf (Abutilon theophrasti); test: Test C greenhouse herbicide test, pre- and postemergence
Text: (§2) Seeds of plant species selected from blackgrass (Alopecurus myosuroides), ryegrass, Italian (Italian ryegrass, Lolium multiflorum), wheat (winter wheat, Triticum aestivum), galium (catchweed bedstraw, Galium aparine), corn (Zea mays), large crabgrass, large (large crabgrass, Digitaria sanguinalis), foxtail, giant (giant foxtail, Setaria faberii), johnsongrass (Sorghum halepense), lambsquarters (Chenopodium album), morningglory (Ipomoea coccinea), nutsedge, yellow (yellow nutsedge, Cyperus esculentus), pigweed (Amaranthus retroflexus), ragweed (common ragweed, Ambrosia elatior), soybean (Glycine max), barnyardgrass (Echinochloa crus-galli), oilseed rape (Brassica napus), waterhemp (common waterhemp, Amaranthus rudis), and velvetleaf (Abutilon theophrasti) were planted into a blend of loam soil and sand and treated preemergence with test chemicals formulated in a non-phytotoxic solvent mixture which included a surfactant.
(§3) At the same time, plants selected from these crop and weed species and also chickweed (common chickweed, Stellaria media), kochia (Kochia scoparia), and oat, wild (wild oat, Avena fatua), were planted in pots containing Redi-Earth® planting medium (Scotts Company, 14111 Scottslawn Road, Marysville, Ohio 43041) comprising spaghnum peat moss, vermiculite, wetting agent and starter nutrients and treated with postemergence applications of test chemicals formulated in the same manner. Plants ranged in height from 2 to 18 cm (1- to 4-leaf stage) for postemergence treatments. Treated plants and controls were maintained in a greenhouse for 13 to 15 d, after which time all species were compared to controls and visually evaluated. Plant response ratings, summarized in Table C, are based on a scale of 0 to 100 where 0 is no effect and 100 is complete control. A dash (-) response means no test result.

[8] = test system: barnyardgrass (Echinochloa crus-galli); test: as above
Text: as §2, §3

[9] = test system: galium (catchweed bedstraw, Galium aparine); test: as above
Text: as §2, §3

[10] = Postemergence, 125 g ai/ha, visual rating after approx. 10 d, 0 to 100 scale (0 no effect, 100 complete control)
[11] = Postemergence, 500 g ai/ha, 0 to 100 scale, 0 is no effect, 100 is complete control
[12] = Preemergence, 125 g ai/ha, 0 to 100 scale where 0 is no effect and 100 is complete control
[13] = Preemergence, 500 g ai/ha, 0 to 100 scale, 0 no effect, 100 complete control
[14] = Postemergence, 125 g ai/ha, 0 to 100 scale where 0 is no effect and 100 is complete control
[15] = Postemergence, 31 g ai/ha, 0 to 100 scale (0 no effect, 100 complete control)
[16] = Postemergence, 125 g ai/ha, scale 0 to 100, 0 is no effect, 100 is complete control
[17] = Postemergence, 250 g ai/ha, scale 0 to 100, 0 no effect, 100 complete control, 13 to 15 d
[18] = Preemergence, 62 g ai/ha, scale 0 to 100, 0 is no effect, 100 is complete control
[19] = Preemergence, 125 g ai/ha, scale 0 to 100, 0 is no effect, 100 is complete control
[20] = Preemergence, 250 g ai/ha, scale 0 to 100 (0 no effect, 100 complete control)
[21] = postemergence, 62 g ai/ha, scale 0 to 100, 0 no effect, 100 complete control
[22] = Preemergence, 31 g ai/ha, scale 0 to 100, 0 is no effect, 100 is complete control

Compound: CCC(=O)Oc1c(C)nn(C)c(=O)c1-c1c(C)sc2c(C)cc(C)cc12 [Compound 28]
- Plant response rating, Kochia (kochia (Kochia scoparia); [10]): 70
- Kochia plant response rating (kochia (Kochia scoparia); [11]): 90
- Kochia plant response rating (kochia (Kochia scoparia); [12]): 50
- Plant response rating, Kochia (kochia (Kochia scoparia); [13]): 90
- Plant response rating, Barnyardgrass [1, 10]: 80
- Barnyardgrass plant response rating [1, 11]: 90
- Barnyardgrass plant response rating [1, 12]: 90
- Plant response rating, Barnyardgrass [1, 13]: 90
- Plant response rating, Foxtail, Giant [2, 10]: 90
- Foxtail, Giant plant response rating [2, 11]: 90
- Foxtail, Giant plant response rating [2, 12]: 100
- Plant response rating, Foxtail, Giant [2, 13]: 100
- Plant response rating, Corn (corn (Zea mays); [10]): 0
- Corn plant response rating (corn (Zea mays); [11]): 20
- Plant response rating, Wheat [3, 14]: 0
- Wheat plant response rating [3, 11]: 0
- Plant response rating, Ragweed [4, 10]: 80
- Ragweed plant response rating [4, 11]: 100
- Ragweed plant response rating [4, 12]: 90
- Plant response rating, Ragweed [4, 13]: 90
- Plant response rating, Ryegrass, Italian [5, 14]: 90
- Ryegrass, Italian plant response rating [5, 11]: 100
- Ryegrass, Italian plant response rating [5, 12]: 100
- Plant response rating, Ryegrass, Italian [5, 13]: 100
- Plant response rating, Pigweed [6, 10]: 90
- Pigweed plant response rating [6, 11]: 90
- Pigweed plant response rating [6, 12]: 100
- Plant response rating, Pigweed [6, 13]: 100
- Velvetleaf plant response rating [7, 15]: 70
- Plant response rating, Velvetleaf [7, 16]: 85
- Plant response rating, Velvetleaf [7, 17]: 90
- Plant response rating, Velvetleaf [7, 18]: 85
- Plant response rating, Velvetleaf [7, 19]: 90
- Velvetleaf plant response rating [7, 20]: 95
- Velvetleaf plant response rating [7, 21]: 85
- Barnyardgrass plant response rating [8, 15]: 20
- Plant response rating, Barnyardgrass [8, 16]: 35
- Plant response rating, Barnyardgrass [8, 17]: 40
- Plant response rating, Barnyardgrass [8, 22]: 45
- Plant response rating, Barnyardgrass [8, 18]: 75
- Plant response rating, Barnyardgrass [8, 19]: 90
- Barnyardgrass plant response rating [8, 20]: 95
- Barnyardgrass plant response rating [8, 21]: 25
- Galium plant response rating [9, 15]: 100
- Plant response rating, Galium [9, 16]: 100
- Plant response rating, Galium [9, 17]: 100
- Plant response rating, Galium [9, 22]: 95
- Plant response rating, Galium [9, 18]: 95
- Plant response rating, Galium [9, 19]: 95
- Galium plant response rating [9, 20]: 95
- Galium plant response rating [9, 21]: 100

Compound: Cc1ccc2sc(C)c(-c3c(O)c(C)nn(C)c3=O)c2c1 [Compound 1, 4-(2,5-dimethylbenzo[b]thien-3-yl)-5-hydroxy-2,6-dimethyl-3(2H)-pyridazinone]
- pest or weed control at 1000 g/ha ([1]; post-emergence, Postemergence, 0 to 100 scale, 0 is no effect, 100 is complete control, read-out: Barnyardgrass plant response rating): 90%
- pest or weed control at 1000 g/ha ([1]; pre-emergence, Preemergence, 0 to 100 scale, 0 no effect, 100 complete control, read-out: Plant response rating, Barnyardgrass): 90%
- pest or weed control at 1000 g/ha ([2]; post-emergence, Postemergence, 0 to 100 scale, 0 is no effect, 100 is complete control, read-out: Foxtail, Giant plant response rating): 80%
- pest or weed control at 1000 g/ha ([2]; pre-emergence, Preemergence, 0 to 100 scale, 0 no effect, 100 complete control, read-out: Plant response rating, Foxtail, Giant): 100%
- plant injury at 1000 g/ha (corn (Zea mays); Zea mays, post-emergence, 240 h, Postemergence, 1000 g ai/ha, 0 to 100 scale, 0 is no effect, 100 is complete control, read-out: Corn plant response rating): 40%
- Corn plant response rating (crop injury, 0 = no effect, 100 = complete kill) at 1000 g/ha (corn (Zea mays); Zea mays, pre-emergence, 240 h, Preemergence, 1000 g ai/ha, 0 to 100 scale, 0 no effect, 100 complete control): 0%
- plant injury at 1000 g/ha ([3]; post-emergence, Postemergence, 0 to 100 scale, 0 is no effect, 100 is complete control, read-out: Wheat plant response rating): 0%
- plant injury at 1000 g/ha ([3]; pre-emergence, Preemergence, 0 to 100 scale, 0 no effect, 100 complete control, read-out: Plant response rating, Wheat): 0%
- pest or weed control at 1000 g/ha ([6]; post-emergence, Postemergence, 0 to 100 scale, 0 is no effect, 100 is complete control, read-out: Pigweed plant response rating): 100%
- pest or weed control at 1000 g/ha ([6]; pre-emergence, Preemergence, 0 to 100 scale, 0 no effect, 100 complete control, read-out: Plant response rating, Pigweed): 100%
- Velvetleaf plant response rating [7, 15]: 80
- Plant response rating, Velvetleaf [7, 16]: 95
- Plant response rating, Velvetleaf [7, 17]: 100
- Plant response rating, Velvetleaf [7, 18]: 90
- Plant response rating, Velvetleaf [7, 19]: 100
- Velvetleaf plant response rating [7, 20]: 98
- Velvetleaf plant response rating [7, 21]: 85
- Barnyardgrass plant response rating [8, 15]: 0
- Plant response rating, Barnyardgrass [8, 16]: 5
- Plant response rating, Barnyardgrass [8, 17]: 5
- Plant response rating, Barnyardgrass [8, 22]: 5
- Plant response rating, Barnyardgrass [8, 18]: 5
- Plant response rating, Barnyardgrass [8, 19]: 25
- Barnyardgrass plant response rating [8, 20]: 90
- Barnyardgrass plant response rating [8, 21]: 5
- Galium plant response rating [9, 15]: 90
- Plant response rating, Galium [9, 16]: 95
- Plant response rating, Galium [9, 17]: 95
- Plant response rating, Galium [9, 22]: 90
- Plant response rating, Galium [9, 18]: 100
- Plant response rating, Galium [9, 19]: 95
- Galium plant response rating [9, 20]: 100
- Galium plant response rating [9, 21]: 95
